# ChEMBL document CHEMBL1153674, “Synthesis and incorporation of 2-amino acid conjugated nucleotides into ribozymes” (Bioorg Med Chem Lett, 1995)
# Test: Half-life was determined
# Format: ADME
# Conditions: human
row,Compound,half-life [min]
1,COc1ccc(C(OCC2OC(n3ccc(=O)[nH]c3=O)C(NC(=O)[C@@H](CCCCNC(=O)OCC3c4ccccc4-c4ccccc43)NC(=O)OCC3c4ccccc4-c4ccccc43)C2O)(c2ccccc2)c2ccc(OC)cc2)cc1 (some centres undefined),11.5
2,COc1ccc(C(OCC2OC(n3ccc(=O)[nH]c3=O)C(NC(=O)[C@@H](C)NC(=O)OCC3c4ccccc4-c4ccccc43)C2O)(c2ccccc2)c2ccc(OC)cc2)cc1 (some centres undefined),13
3,COc1ccc(C(OCC2OC(n3ccc(=O)[nH]c3=O)C(NC(=O)[C@@H](CC(=O)OCc3ccccc3)NC(=O)OCC3c4ccccc4-c4ccccc43)C2O)(c2ccccc2)c2ccc(OC)cc2)cc1 (some centres undefined),8
4,O=C(N[C@@H](C(=O)NC1C(O)C(CO)OC1n1ccc(=O)[nH]c1=O)c1ccccc1)OCC1c2ccccc2-c2ccccc21 (some centres undefined),2
5,O=C(NCCCC[C@@H](NC(=O)OCC1c2ccccc2-c2ccccc21)C(=O)NC1C(O)C(CO)OC1n1ccc(=O)[nH]c1=O)OCC1c2ccccc2-c2ccccc21 (some centres undefined),1
6,O=C(C[C@@H](NC(=O)OCC1c2ccccc2-c2ccccc21)C(=O)NC1C(O)C(CO)OC1n1ccc(=O)[nH]c1=O)OCc1ccccc1 (some centres undefined),1
7,N[C@@H]1[C@H](O)[C@@H](CO)O[C@H]1n1ccc(=O)[nH]c1=O,1.5
8,C[C@@H](NC(=O)OCC1c2ccccc2-c2ccccc21)C(=O)NC1C(O)C(CO)OC1n1ccc(=O)[nH]c1=O (some centres undefined),1.5
9,COc1ccc(C(OCC2OC(n3ccc(=O)[nH]c3=O)C(NC(=O)[C@H](NC(=O)OCC3c4ccccc4-c4ccccc43)c3ccccc3)C2O)(c2ccccc2)c2ccc(OC)cc2)cc1 (some centres undefined),3
